US10081647B2, “Phosphate substituted quinolizine derivatives useful as HIV integrase inhibitors” (Merck Sharp & Dohme Corp., priority 2015, dated 2018)
Where two headings read alike, the source gives them in different places.

Test system: HIV-1 (NL4-3 strain)
Test: Assay for inhibition of HIV replication (MT4-gag-GFP reporter cell line, kinetic assay)
Format: cell-based
Details: IP from 4-parameter dose response curve
Description: This assay is useful for assessing the ability of a compound of the present inventiongin to inhibit HIV replication. The assay is a kinetic assay that employs a reporter cell line (MT4-gag-GFP) to quantify the number of new cells infected in each round of replication.
MT4-GFP cells (250,000 cells/ml) are bulk-infected with HIV-1 (NL4-3 strain) at low multiplicity of infection (MOI) in RPMI+10% FBS for 24 hours. Cells are then washed once in RPMI+10% FBS and resuspended in RPMI+0% or 10% or 100% normal human serum (NHS). Test compounds are serial-diluted in DMSO using an ECHO liquid handler. The infected MT4-GFP cells are added to a 384-well poly-D-lysine coated black plate with clear bottom in which the diluted test compounds are placed. The cells are seeded at 8,000 cells per well and the final DMSO concentration is adjusted to 0.4%. The infected cells (Green GFP cells) are then quantified at both 24 and 48 hours post incubation using Acumen eX3. Viral reproductive ratio (R0) is determined using the number of infected cells at 48 hours divided by the number of infected cells at 24 hours. Percent viral growth inhibition is calculated by [1−(R−Rtripledrug)/(RDMSO−Rtripledrug)]*100. Compound potency IP or IC50 can be determined using a 4-parameter dose response curve analysis.

[1] = infected MT4-GFP cells in 100% normal human serum, read-out: WILD TYPE CELL ASSAY Viking IP (100% NHS)
[2] = infected MT4-GFP cells in RPMI + 0% normal human serum, read-out: WILD TYPE CELL ASSAY Viking IP (0% NHS)
[3] = Human immunodeficiency virus 1, NL43, infected MT4-GFP cells in RPMI + 0% normal human serum, read-out: WILD TYPE CELL ASSAY Viking IP (0% NHS)
[4] = Human immunodeficiency virus 1, NL43, infected MT4-GFP cells in 100% normal human serum, read-out: WILD TYPE CELL ASSAY Viking IP (100% NHS)

SMILES | IC50 [1] [nM] | IC50 [2] [nM] | IC50 [3] [nM] | IC50 [4] [nM]
CC1(C)C(=O)c2c(O)c(=O)c(C(=O)NCc3ccc(F)cc3F)cn2CC1OCCP(=O)(O)O (stereo not drawn) [Compound 68] | > 8000 | > 1000 |  | 
CC(C)OC(=O)OCOP(=O)(CCCOC1Cn2cc(C(=O)NCc3ccc(F)cc3F)c(=O)c(O)c2C(=O)C1(C)C)OCOC(=O)OC(C)C (stereo not drawn) [Compound 76] | 2770 | 45 |  | 
COC1Cn2cc(C(=O)NCc3ccc(F)cc3F)c(=O)c(O)c2C(=O)C1(C)CCOCCP(=O)(O)O (stereo not drawn) [Compound 61] | 2500 | 970 |  | 
COC1Cn2cc(C(=O)NCc3ccc(F)cc3F)c(=O)c(O)c2C(=O)C1(C)CCOCCCP(=O)(O)O (stereo not drawn) [Compound 49] | > 8400 | > 1050 |  | 
COC1Cn2cc(C(=O)NCc3ccc(F)cc3F)c(=O)c(O)c2C(=O)C1(C)CCOCCP(=O)(O)O (stereo not drawn) [Compound 58] | > 8400 |  | > 1050 | 
COC1Cn2cc(C(=O)NCc3ccc(F)cc3F)c(=O)c(O)c2C(=O)C1(C)COCCP(=O)(OCOC(=O)OC(C)C)OCOC(=O)OC(C)C (stereo not drawn) [Compound 42] | 407 | 1.2 |  | 
CCOP(=O)(CCCNC1Cn2cc(C(=O)NCc3ccc(F)cc3F)c(=O)c(O)c2C(=O)C1(C)C)OCC (stereo not drawn) [Compound 105] | 628 | 15 |  | 
CCOP(=O)(CCOCCC1(C)C(=O)c2c(O)c(=O)c(C(=O)NCc3ccc(F)cc3F)cn2CC1OC)OCC (stereo not drawn) [Compound 54] | 223 | 11 |  | 
CCOP(=O)(CCOCCC1(C)C(=O)c2c(O)c(=O)c(C(=O)NCc3ccc(F)cc3F)cn2CC1OC)OCC (stereo not drawn) [Compound 55] | 128 | 6.7 |  | 
COCCC1(C)C(=O)c2c(O)c(=O)c(C(=O)NCc3ccc(F)cc3F)cn2CC1OCCP(=O)(OCOC(=O)OC(C)C)OCOC(=O)OC(C)C (stereo not drawn) [Compound 86] | 980 | 3.5 |  | 
CCOP(=O)(CCCOC1Cn2cc(C(=O)NCc3ccc(F)cc3F)c(=O)c(O)c2C(=O)C1(C)CCOC)OCC (stereo not drawn) [Compound 90] | 123 | 15 |  | 
COC1Cn2cc(C(=O)NCc3ccc(F)cc3F)c(=O)c(O)c2C(=O)C1(C)COCCP(=O)(OCOC(=O)OC(C)C)OCOC(=O)OC(C)C (stereo not drawn) [Compound 40] | 118 | 0.5 |  | 
COC1Cn2cc(C(=O)NCc3ccc(F)cc3F)c(=O)c(O)c2C(=O)C1(C)CCOCCP(=O)(OCOC(=O)OC(C)C)OCOC(=O)OC(C)C (stereo not drawn) [Compound 62] | 4700 | 14 |  | 
COCCC1(C)C(=O)c2c(O)c(=O)c(C(=O)NCc3ccc(F)cc3F)cn2CC1OCCP(=O)(OCOC(=O)OC(C)C)OCOC(=O)OC(C)C (stereo not drawn) [Compound 88] | 29 | 0.9 |  | 
COC1Cn2cc(C(=O)NCc3ccc(F)cc3F)c(=O)c(O)c2C(=O)C1(C)CCOCCP(=O)(O)O (stereo not drawn) [Compound 59] | 4260 | > 1050 |  | 
CCOP(=O)(CCCOC1Cn2cc(C(=O)NCc3ccc(F)cc3F)c(=O)c(O)c2C(=O)C1(C)CCOC)OCC (stereo not drawn) [Compound 89] | 211 | 15 |  | 
CCOP(=O)(CCCOC1Cn2cc(C(=O)NCc3ccc(F)cc3F)c(=O)c(O)c2C(=O)C1(C)CCOC)OCC (stereo not drawn) [Compound 91] | 600 | 31 |  | 
CCOP(=O)(CCCOCCC1(C)C(=O)c2c(O)c(=O)c(C(=O)NCc3ccc(F)cc3F)cn2CC1OC)OCC (stereo not drawn) [Compound 44] | 159 | 7.2 |  | 
COCCC1(C)C(=O)c2c(O)c(=O)c(C(=O)NCc3ccc(F)cc3F)cn2CC1OCCP(=O)(OCOC(=O)OC(C)C)OCOC(=O)OC(C)C (stereo not drawn) [Compound 87] | 21 | 0.8 |  | 
CCOP(=O)(CCCOC1Cn2cc(C(=O)NCc3ccc(F)cc3F)c(=O)c(O)c2C(=O)C1(C)C)OCC (stereo not drawn) [Compound 71] | 173 | 9.5 |  | 
COC1Cn2cc(C(=O)NCc3ccc(F)cc3F)c(=O)c(O)c2C(=O)C1(C)COCCP(=O)(O)O (stereo not drawn) [Compound 38] | 6050 | 738 |  | 

SMILES | IC50 [1] [nM] | IC50 [2] [nM] | IC50 [3] [nM] | IC50 [4] [nM]
CC(C)OC(=O)OCOP(=O)(CCCNC1Cn2cc(C(=O)NCc3ccc(F)cc3F)c(=O)c(O)c2C(=O)C1(C)C)OCOC(=O)OC(C)C (stereo not drawn) [Compound 110] | 154 | 8.8 |  | 
CCOP(=O)(CCOCC1(C)C(=O)c2c(O)c(=O)c(C(=O)NCc3ccc(F)cc3F)cn2CC1OC)OCC (stereo not drawn) [Compound 35] | 86 | 3.5 |  | 
CCOP(=O)(CCOCC1(C)C(=O)c2c(O)c(=O)c(C(=O)NCc3ccc(F)cc3F)cn2CC1OC)OCC (stereo not drawn) [Compound 34] | 238 | 8.2 |  | 
CCOP(=O)(CCOCCC1(C)C(=O)c2c(O)c(=O)c(C(=O)NCc3ccc(F)cc3F)cn2CC1OC)OCC (stereo not drawn) [Compound 56] | 86 | 4.6 |  | 
CCOP(=O)(CCOC1Cn2cc(C(=O)NCc3ccc(F)cc3F)c(=O)c(O)c2C(=O)C1(C)CCOC)OCC (stereo not drawn) [Compound 80] | 2750 | 378 |  | 
CCOP(=O)(CCOC1Cn2cc(C(=O)NCc3ccc(F)cc3F)c(=O)c(O)c2C(=O)C1(C)CCOC)OCC (stereo not drawn) [Compound 78] | 580 | 17 |  | 
CCOP(=O)(CCOC1Cn2cc(C(=O)NCc3ccc(F)cc3F)c(=O)c(O)c2C(=O)C1(C)CCOC)OCC (stereo not drawn) [Compound 79] | 177 | 15 |  | 
CC1(C)C(=O)c2c(O)c(=O)c(C(=O)NCc3ccc(F)cc3F)cn2CC1OCCP(=O)(O)O (stereo not drawn) [Compound 67] |  |  | 669 | 4260
COC1Cn2cc(C(=O)NCc3ccc(F)cc3F)c(=O)c(O)c2C(=O)C1(C)COCCP(=O)(OCOC(=O)OC(C)C)OCOC(=O)OC(C)C (stereo not drawn) [Compound 41] | > 8000 | 0.97 |  | 
COC1Cn2cc(C(=O)NCc3ccc(F)cc3F)c(=O)c(O)c2C(=O)C1(C)COCCP(=O)(O)O (stereo not drawn) [Compound 36] | 3600 | 629 |  | 
COC1Cn2cc(C(=O)NCc3ccc(F)cc3F)c(=O)c(O)c2C(=O)C1(C)CCOCCP(=O)(O)O (stereo not drawn) [Compound 60] | 5180 | 765 |  | 
COC1Cn2cc(C(=O)NCc3ccc(F)cc3F)c(=O)c(O)c2C(=O)C1(C)CCOCCCP(=O)(O)O (stereo not drawn) [Compound 48] |  |  | 626 | 6940
CCOP(=O)(CCCNC1Cn2cc(C(=O)NCc3ccc(F)cc3F)c(=O)c(O)c2C(=O)C1(C)C)OCC (stereo not drawn) [Compound 106] | 95 | 3.6 |  | 
COCCC1(C)C(=O)c2c(O)c(=O)c(C(=O)NCc3ccc(F)cc3F)cn2CC1OCCP(=O)(OCOC(=O)OC(C)C)OCOC(=O)OC(C)C (stereo not drawn) [Compound 85] | 7.7 | 0.291 |  | 
COC1Cn2cc(C(=O)NCc3ccc(F)cc3F)c(=O)c(O)c2C(=O)C1(C)COCCP(=O)(OCOC(=O)OC(C)C)OCOC(=O)OC(C)C (stereo not drawn) [Compound 43] | 1480 | 1.4 |  | 
CCOP(=O)(CCCOC1Cn2cc(C(=O)NCc3ccc(F)cc3F)c(=O)c(O)c2C(=O)C1(C)CCOC)OCC (stereo not drawn) [Compound 92] | 2320 | 143 |  | 
CC(C)OC(=O)OCOP(=O)(CCCNC1Cn2cc(C(=O)NCc3ccc(F)cc3F)c(=O)c(O)c2C(=O)C1(C)C)OCOC(=O)OC(C)C (stereo not drawn) [Compound 109] | 3520 | 38 |  | 
COC1Cn2cc(C(=O)NCc3ccc(F)cc3F)c(=O)c(O)c2C(=O)C1(C)CCOCCP(=O)(OCOC(=O)OC(C)C)OCOC(=O)OC(C)C (stereo not drawn) [Compound 64] | 289 | 2.9 |  | 
CCOP(=O)(CCCOC1Cn2cc(C(=O)NCc3ccc(F)cc3F)c(=O)c(O)c2C(=O)C1(C)C)OCC (stereo not drawn) [Compound 72] | 923 | 26 |  | 
CC1(C)C(=O)c2c(O)c(=O)c(C(=O)NCc3ccc(F)cc3F)cn2CC1OCCCP(=O)(O)O (stereo not drawn) [Compound 73] |  |  | 836 | > 8400
COCCC1(C)C(=O)c2c(O)c(=O)c(C(=O)NCc3ccc(F)cc3F)cn2CC1OCCP(=O)(O)O (stereo not drawn) [Compound 82] | > 8000 | 729 |  | 
